Blank lines part the entries; values can stand above or below the molecule they belong to.
Columns and labels:
[1] = target: T1, Thrombin (Bos taurus, UniProt P00735); test: Thrombin inhibition, chromogenic substrate N-Benzoyl-Phe-Val-Arg-p-nitroanilide; type: biochemical; conditions: Examples 10, 11; thrombin from bovine plasma; bile salt from 100 mg/ml; 37° C., up to 30 minutes; FIGS. 13, 14
T1 construct: Thrombin, from bovine plasma; from tissue; host or cells: bovine plasma
Protocol: Thrombin, from bovine plasma, was dissolved in HBSS at a concentration of 0.5 mg/ml. The substrate N-Benzoyl-Phe-Val-Arg-p-nitroanilide hydrochloride was dissolved in HBSS at a concentration of 0.5 mg/ml, and sodium chenodeoxycholate was dissolved at a range of concentrations starting at 100 mg/ml. The assay was conducted in the wells of 96-well clear plastic microplates, in which 50:1 of enzyme solution and 100:1 of bile salt were mixed together, and then 50:1 of substrate was added, with mixing, at the start of the reaction, which proceeded at 37° C. for up to 30 minutes, with measurement at various intermediate time points. The progress of the enzymatic reaction was assessed by measuring the appearance of reaction product (p-nitroaniline) colorimetrically using a wavelength of 405 nm on an Anthos reader 2001 from Anthos Labtec Instruments.
Example 10 was repeated but with sodium deoxycholate instead of sodium chenodeoxycholate.

[2] = target: T2, chymotrypsin (Bos taurus, UniProt P00766); test: Chymotrypsin inhibition, fluorogenic peptide substrates; type: biochemical, bovine
T2 construct: Chymotrypsin, from bovine plasma; from tissue
Protocol: (§1) The following Examples serve to illustrate the present invention, and should not be construed as limiting.
(§2) Trypsin, from bovine pancreas, was dissolved in Hanks Balanced Salt Solution (HBSS) at a concentration of 0.02 mg/ml. The substrate Z-L-arginine 4-methyl-7coumarinylamide was dissolved in HBSS at a concentration of 0.01 mg/ml, and sodium chenodeoxycholate was dissolved at a range of concentrations starting at 100 mg/ml. The assay was conducted in the wells of 96-well black plastic microplates, in which 20:1 of enzyme solution and 60:1 of bile salt were mixed together, and then 20:1 of substrate was added, with mixing, at the start of the reaction, which proceeded at room temperature for up to 30 minutes, with measurement at various intermediate time points.
Example 1 was repeated but with chymotrypsin as the protease (instead of trypsin) and with glutaryl-L-phenylalanine 4-methyl-7-coumarinylamide as the substrate.
Example 2 was repeated but with sodium deoxycholate instead of sodium chenodeoxycholate.
(§3) Chymotrypsin, from bovine plasma, was dissolved in HBSS at a concentration of 0.02 mg/ml. The substrate Boc-β-benzyl-Asp-Pro-Arg-7-amido-4-methylcoumarin was dissolved in HBSS at a concentration of 0.01 mg/ml, and sodium chenodeoxycholate was dissolved at 100 mg/ml. The assay was conducted in the wells of 96-well clear plastic microplates, in which 20:1 of enzyme solution and 60:1 of bile salt were mixed together, and then 20:1 of substrate was added, with mixing, at the start of the reaction, which proceeded at 37° C. for up to 30 minutes, with measurement at various intermediate time points.

[3] = target: T3, Trypsin (Bos taurus, UniProt P00760); test: Trypsin inhibition, fluorogenic substrate Z-L-arginine 4-methyl-7-coumarinylamide; type: biochemical, bovine; conditions: up to 30 minutes
T3 construct: Trypsin, from bovine pancreas; from tissue; host or cells: bovine pancreas
T3 sequence (P00760 24-246): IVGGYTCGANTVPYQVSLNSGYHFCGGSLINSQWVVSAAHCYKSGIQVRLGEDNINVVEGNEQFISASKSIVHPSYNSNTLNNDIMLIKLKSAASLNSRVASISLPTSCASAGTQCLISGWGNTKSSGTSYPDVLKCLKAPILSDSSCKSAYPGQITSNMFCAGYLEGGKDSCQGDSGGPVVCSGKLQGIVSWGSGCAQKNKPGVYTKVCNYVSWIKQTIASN
Protocol: as §1, §2
Example 1 was repeated but with sodium deoxycholate instead of sodium chenodeoxycholate.
as §2, with “HBSS” for “Hanks Balanced Salt Solution (HBSS)”, “4-methyl-7-coumarinylamide” for “4-methyl-7coumarinylamide”, “ursodeoxycholate” for “chenodeoxycholate”, “50” for “100”, “100:1” for “60:1”, “37° C.” for “room temperature”
as §2, with “HBSS” for “Hanks Balanced Salt Solution (HBSS)”, “4-methyl-7-coumarinylamide” for “4-methyl-7coumarinylamide”, “glycodeoxycholate” for “chenodeoxycholate”, “100:1” for “60:1”, “37° C.” for “room temperature”
Example 5 was repeated but with sodium glycochenodeoxycholate instead of sodium ursodeoxycholate.
Example 6 was repeated but with sodium glycocholate instead of sodium glycodeoxycholate.
Example 9 was repeated but with trypsin (instead of chymotrypsin) from bovine plasma, Z-L-arginine 4-methyl-7-coumarinylamide as the substrate and metformin as the inhibitor.
as §3, with “Trypsin,” for “Chymotrypsin,”, “pancreas,” for “plasma,”, “Z-L-arginine 4-methyl-7-coumarinylamide” for “Boc-β-benzyl-Asp-Pro-Arg-7-amido-4-methylcoumarin”, “phenformin” for “sodium chenodeoxycholate”, “black” for “clear”, “100:1” for “60:1”

[4] = tested on: gut proteases; test: Inhibition of gut proteases, general statement; type: biochemical; conditions: see FIGS. 5 and 6
[5] = Example 4, substrate glutaryl-L-phenylalanine 4-methyl-7-coumarinylamide, bile salt 25 mg/ml, FIG. 6
[6] = Example 3, bile salt 25 mg/ml, room temperature, FIG. 5
[7] = Examples 5-8, 13, trypsin from bovine pancreas, 37° C., FIGS. 7-11, 16

Inhibition of thrombin activity over time [1]: Inhibition of enzyme activity
Inhibition of chymotrypsin activity over time and dose response ([2]; Example 2, substrate glutaryl-L-phenylalanine 4-methyl-7-coumarinylamide, bile salt from 100 mg/ml, FIGS. 3, 4): Inhibition of enzyme activity
Inhibition of chymotrypsin activity over time ([2]; Example 9, chymotrypsin from bovine plasma, substrate Boc-β-benzyl-Asp-Pro-Arg-7-amido-4-methylcoumarin, 100 mg/ml, 37° C., FIG. 12): Inhibition of enzyme activity
Inhibition of trypsin activity over time and dose response ([3]; Example 1, trypsin from bovine pancreas, bile salt from 100 mg/ml, room temperature, FIGS. 1, 2): Inhibition of enzyme activity
SMILES: C[C@H](CCC(=O)O)[C@H]1CC[C@H]2[C@@H]3[C@H](O)C[C@@H]4C[C@H](O)CC[C@]4(C)[C@H]3CC[C@]12C [chenodeoxycholate, sodium chenodeoxycholate]

Inhibition of trypsin activity over time [3, 7]: Inhibition of enzyme activity
SMILES: C[C@H](CCC(=O)NCC(=O)O)[C@H]1CC[C@H]2[C@@H]3[C@H](O)C[C@@H]4C[C@H](O)CC[C@]4(C)[C@H]3C[C@H](O)[C@]12C [glycocholate, sodium glycocholate]

Inhibition of trypsin activity over time ([3]; Example 12, trypsin from bovine plasma, 37° C., FIG. 15): Inhibition of enzyme activity
SMILES: CN(C)C(=N)N=C(N)N [metformin]

Inhibition of trypsin activity over time [3, 7]: Inhibition of enzyme activity
SMILES: [H]/N=C(/N)N/C(=N/[H])NCCc1ccccc1 [phenformin]

Inhibition of trypsin activity over time [3, 6]: do not inhibit trypsin
SMILES: C[C@H](CCC(=O)NCCS(=O)(=O)O)[C@H]1CC[C@H]2[C@@H]3CC[C@@H]4C[C@H](O)CC[C@]4(C)[C@H]3C[C@H](O)[C@]12C [taurodeoxycholate, taurodeoxycholic acid]
Inhibitory effect on gut proteases [4]: do not have this inhibitory effect

Inhibition of trypsin activity over time [3, 7]: Inhibition of enzyme activity
SMILES: C[C@H](CCC(=O)O)[C@H]1CC[C@H]2[C@@H]3[C@@H](O)C[C@@H]4C[C@H](O)CC[C@]4(C)[C@H]3CC[C@]12C [ursodeoxycholate, sodium ursodeoxycholate]

The remaining lines, values behind:

SMILES: C[C@H](CCC(=O)O)[C@H]1CC[C@H]2[C@@H]3[C@H](O)C[C@@H]4C[C@H](O)CC[C@]4(C)[C@H]3C[C@H](O)[C@]12C [cholate, cholic acid]
Inhibition of chymotrypsin activity over time [2, 5]: do not inhibit chymotrypsin
Inhibition of trypsin activity over time [3, 6]: do not inhibit trypsin
Inhibitory effect on gut proteases [4]: do not have this inhibitory effect

SMILES: C[C@H](CCC(=O)[O-])[C@H]1CC[C@H]2[C@@H]3CC[C@@H]4C[C@H](O)CC[C@]4(C)[C@H]3C[C@H](O)[C@]12C.[Na+] [deoxycholate, sodium deoxycholate]
Inhibition of thrombin activity over time [1]: Inhibition of enzyme activity
Inhibition of chymotrypsin activity over time [2, 5]: Inhibition of enzyme activity
Inhibition of trypsin activity over time [3, 6]: Inhibition of enzyme activity

SMILES: C[C@H](CCC(=O)NCC(=O)O)[C@H]1CC[C@H]2[C@@H]3[C@H](O)C[C@@H]4C[C@H](O)CC[C@]4(C)[C@H]3CC[C@]12C [glycochenodeoxycholate, sodium glycochenodeoxycholate]
Inhibition of trypsin activity over time [3, 7]: Inhibition of enzyme activity

SMILES: C[C@H](CCC(=O)NCC(=O)[O-])[C@H]1CC[C@H]2[C@@H]3CC[C@@H]4C[C@H](O)CC[C@]4(C)[C@H]3C[C@H](O)[C@]12C.[Na+] [glycodeoxycholate, sodium glycodeoxycholate]
Inhibition of trypsin activity over time [3, 7]: Inhibition of enzyme activity

SMILES: C[C@H](CCC(=O)NCCS(=O)(=O)O)[C@H]1CC[C@H]2[C@@H]3[C@H](O)C[C@@H]4C[C@H](O)CC[C@]4(C)[C@H]3C[C@H](O)[C@]12C [taurocholate, taurocholic acid]
Inhibition of chymotrypsin activity over time [2, 5]: do not inhibit chymotrypsin
Inhibition of trypsin activity over time [3, 6]: do not inhibit trypsin
Inhibitory effect on gut proteases [4]: do not have this inhibitory effect
